Test results from patent US20260060991A1, “METHODS AND COMPOSITIONS FOR INHIBITING CLONAL HEMATOPOIESIS” (The Jackson Laboratory, priority 2022, published 2026).
“Also recorded” adds a separate entry of the source.

Tested on: WT recipient mice transplanted with Dnmt3a-mutant cells (Dnmt3a;Npm1-mutant)
Assay: Navitoclax treatment of mice transplanted with Dnmt3a-mutant cells, followed by tamoxifen induction of the Npm1 mutation (progression from clonal hematopoiesis to myeloid malignancy)
Type: in vivo, mouse
Experimental: FIG. 6A-6E: Navitoclax treatment attenuates Dnmt3a-mutant peripheral blood myeloid cell overproduction. (FIG. 6A) Dnmt3a-mutant cells were transplanted into wild type recipient mice, 12 weeks post-transplant Navitoclax or vehicle control was administered, and 2 weeks later the Npm1 mutation was induced in the Dnmt3a-mutant cells. (FIG. 6B) Frequency of donor-derived mature Dnmt3a;Npm1-mutant myeloid cells in peripheral blood of Navitoclax or vehicle control treated transplant mice. (FIG. 6C) Engraftment of donor-derived mature Dnmt3a;Npm1-mutant myeloid cells in BM (FIG. 6D) β-gal expression in BMSCs, and (FIG. 6E) monocyte count in navitoclax versus vehicle treated mice.
Next, the functional importance of BMSC senescence in Dnmt3a-mutant transformation to AML was evaluated. Dnmt3a-mutant cells were transplanted into WT recipient mice, administered the senolytic Navitoclax or vehicle control, and then induced the AML driver mutation Npm1^c in vivo.
Using the senolytic Navitoclax, targeting Bcl-2/Bcl-xL, we evaluated the extent to which removing senescent cells caused by Dnmt3a-mutant haematopoiesis in vivo would delay progression from clonal hematopoiesis to myeloid malignancy. Briefly, Dnmt3a-mutant cells (cells from BM derived from CD45.2^+; Dnmt3a^R787H/+ MxCre; Npm1^frt-cA/+Flpo^ERT mice) were transplanted into recipient mice (CD45.1^+ mice) (FIG. 6A). After 12 weeks (‘Pre-senolytic’), recipient mice were either administered vehicle control or the senolytic agent, navitoclax, by oral gavage to selectively deplete senescent cells. Navitoclax was administered at a dosage of 50 mg/kg/day for 1 week, followed by 2 weeks of no treatment, followed by 1 week of treatment. Blood samples were collected from Pre-senolytic mice before administration of vehicle control or navitoclax. Following navitoclax treatment (‘Post-senolytic’), the AML driver mutation Npm1^cA/+ (‘TAM’) was induced using tamoxifen to initiate progression to myeloid malignancy. Blood samples were collected from Post-senolytic mice and TAM mice. Tamoxifen was administered for a period of 1 week. Blood samples were taken from tamoxifen treated mice (“Post-Npm1”).

navitoclax
frequency of donor (CD45.2+) cells in the BM (5 months after tamoxifen treatment (harvest), relative to vehicle treated controls, FIG. 6C): lower frequency | BMSC senescence (measured by β-gal) (5 months after tamoxifen treatment (harvest), relative to vehicle treated controls, FIG. 6D): maintained lower BMSC senescence | monocyte ("white blood cell" or "WBC") count (5 months after tamoxifen treatment (harvest), relative to vehicle treated controls, FIG. 6E): reduced monocyte | frequency of myeloid cells (CD45.2+) in the peripheral blood (PB) (Post-Npm1 sampling, navitoclax 50 mg/kg/day oral gavage, 1 week on, 2 weeks off, FIG. 6B): reduced frequency | peripheral blood myeloid cell overproduction (concurrent with transformation of Dnmt3a;Npm1-mutant cells, vs vehicle control): reduced; also recorded: attenuates
